Measured values published in patent publication US12570665B2, “Compositions comprising fullerenyl mesochlorin nano-photosensitizers with covalently bound antibiotics and their uses in combination therapy” (priority 2019, dated 2026).

Experiments:
A. baumannii (AF0004) = conditions: 12.5 μM
From the text: Bacterial strains: Two Gram-positive MRSA strains (IQ0064 and IB0004) and one Gram-negative Acinetobacter baumannii strain (AF0004) were studied. All of them are clinical isolates. MRSA IQ0064 was a multidrug-resistant strain isolated from wounded military personnel deployed to Iraq. According to a microbiology test, IQ0064 strain was resistant to ampicillin, cefazolin, cefoxitin, oxacillin, and penicillin. MRSA IB0004 was an isolate from a keratitis patient. A. baumannii AF0004 was a multidrug-resistant strain isolated from wounded military personnel deployed to Afghanistan. […]
Light source: Light was delivered topically using a noncoherent light source (LumaCare, Newport Beach, CA) that provided the full spectrum of visible light (400 to 800 nm). […] The light power was routinely measured using a laser power meter (Fieldmate; Coherent, Portland, OR).
Antimicrobial photodynamic inactivation (aPDI) of bacteria: Bacterial suspensions were adjusted to 10^8 CFU/mL, inoculated to 96-well plates (200 μL/well), incubated with fullerenes at 6.25, 12.50, 18.75, and 25.00 μM concentrations for 1.0 h and then either left in dark or irradiated with 660 nm light at 115 J/cm^2. […] Survival fractions were routinely expressed as ratios of CFU of bacterial cells treated with light and fullerene monoadducts, or treated with fullerenes in the absence of light, to CFU of bacteria treated with neither.

MRSA (strain IQ0064) = format: cell-based, Staphylococcus aureus
Method: (§1) FIG. 3. (A) aPDT against vancomycin-resistant and sensitive strains of E. fecium (VSE). Log10 survival fractions of E. fecium (10^8 cells/mL) incubated for 30 min with 50-nM concentration of VCM-mPheZn-N5^+ (LC39, see Huang, L., Wang, M., Chiang, L. Y., Hamblin, M. R., et al. Photochem. Photobiol. Sci. 2018, 17, 638-651) by irradiation with increasing exposes of a 415-nm LED light. […] Irradiation was carried out with (C) the radiant exposure of 115 J/cm^2 at 660 nm (LED light, 40 mW/cm^2) and (D) the radiant exposure of 20 J/cm^2 at 405 nm (LED light, 24 mW/cm^2). All data were represented as login survival fractions as a function of both aPDI agent concentration and light wavelength/exposure, where the dashed red line in Panel Cd represents the detection limit of MRSA CFU. […] (E) Concentration dependent aPDI of MRSA (strain IQ0064) by ChlPd-(C70>)N10^+ (LC41) upon illumination at 115 J/cm^2 and 660-nm wavelength (40 mW/cm^2).
Bacterial strains: Two Gram-positive MRSA strains (IQ0064 and IB0004) and one Gram-negative Acinetobacter baumannii strain (AF0004) were studied. All of them are clinical isolates. MRSA IQ0064 was a multidrug-resistant strain isolated from wounded military personnel deployed to Iraq. According to a microbiology test, IQ0064 strain was resistant to ampicillin, cefazolin, cefoxitin, oxacillin, and penicillin. MRSA IB0004 was an isolate from a keratitis patient. A. baumannii AF0004 was a multidrug-resistant strain isolated from wounded military personnel deployed to Afghanistan. AF0004 was resistant to a panel of important antibiotics including amikacin, ampicillin, aztreonam, cefazolin, cefepime, cefoxitin, ceftazidime, ceftriaxone, cefuroxime, ciprofloxacin, gentamicin, imipenem, levofloxacin, meropenem, nitrofurantoin, tetracycline and trimethoprim-sulfamethoxazole.
Light source: Light was delivered topically using a noncoherent light source (LumaCare, Newport Beach, CA) that provided the full spectrum of visible light (400 to 800 nm). The system employed interchangeable filter probes and produced a uniform spot for illumination. We used a 660±15-nm filter probe. The irradiance of 40 mW/cm^2 was used throughout the study. The light power was routinely measured using a laser power meter (Fieldmate; Coherent, Portland, OR).
Antimicrobial photodynamic inactivation (aPDI) of bacteria: Bacterial suspensions were adjusted to 10^8 CFU/mL, inoculated to 96-well plates (200 μL/well), incubated with fullerenes at 6.25, 12.50, 18.75, and 25.00 μM concentrations for 1.0 h and then either left in dark or irradiated with 660 nm light at 115 J/cm^2. At the completion of each stage of illumination, the contents of the wells were well mixed before sampling. Aliquots (30 μL) were taken from each well to determine CFU. The aliquots were serially diluted 10-fold in phosphate-buffered saline (PBS) to give dilutions of 10^1 to 10^5 times in addition to the original concentration; then, 10 μL aliquots of each of the dilutions were streaked horizontally on square BHI plates. Plates were streaked in triplicate and incubated for 24 h at 37° C. in the dark to allow colony formation. Control groups included bacterial cells that were treated with light alone (no fullerene monoadducts added), and cells treated with fullerene monoadducts (no light) as the dark control. Survival fractions were routinely expressed as ratios of CFU of bacterial cells treated with light and fullerene monoadducts, or treated with fullerenes in the absence of light, to CFU of bacteria treated with neither.

MRSA cells = test: Binding to MRSA cells by confocal microscopy fluorescence imaging; format: cell-based, Staphylococcus aureus; conditions: 405-nm irradiation, red emission 640-780 nm
MRSA = conditions: against MRSA
E. fecium = conditions: 50 nM, 415 nm irradiation, VCM-resistant and sensitive strains
Method: as §1

3a-hydroxy-3b-aminoethylene-aminoPEGlycolated vancomycin-15b-methyl-13a,17c-di[N,N′,N,N,N,N-hexapropyl-panta(aminoethylene)]amide-mesochlorin [LC40e]
dark toxicity to A. baumannii cells (A. baumannii (AF0004); no light): about 1.5 log10 CFU
CFU reduction (inactivation of A. baumannii CFUs) (A. baumannii (AF0004); red light 660 nm, 115 J/cm^2): > 6 log10 CFU
photokilling efficacy on MRSA (MRSA (strain IQ0064); 10-20 μM, 405-nm irradiation, 20 J/cm^2): 5.0 log10
CFU reduction (photokilling of MRSA) (MRSA (strain IQ0064); 10-20 μM, 660-nm light, 115 J/cm^2): > 6.5 log10 CFU
light mediated killing of MRSA cells (qualitative) (MRSA (strain IQ0064); 405- and 660-nm photoexcitation, up to 20 μM): susceptible to light mediated killing
additional increase in the inactivation of bacteria by the combination of antibiotics and aPDT (MRSA (strain IQ0064); combination versus antibiotic activity alone): 3 log10 CFU
antibiotic activity, CFU killing without red-light irradiation (MRSA (strain IQ0064); without red-light irradiation, bacterium not given, MRSA implied): 4 log10 CFU
red FL emission on pretreated MRSA cells (relative cell affinity) (MRSA cells): significantly enhanced
MIC (MRSA): 2.0 µg/mL

3a-hydroxy-3b-vancomycin-15b-methyl-17c-[N,N′,N,N,N,N-hexapropyl-penta(aminoethylene)]amide-[Zn^+2]mesopheophorbide [LC39]
aPDT effect (E. fecium): excellent aPDT effect

CN[C@H](CC(C)C)C(=O)N[C@H]1C(=O)N[C@@H](CC(N)=O)C(=O)N[C@H]2C(=O)N[C@H]3C(=O)N[C@H](C(=O)N[C@H](C(=O)O)c4cc(O)cc(O)c4-c4cc3ccc4O)[C@H](O)c3ccc(c(Cl)c3)Oc3cc2cc(c3O[C@@H]2O[C@H](CO)[C@@H](O)[C@H](O)[C@H]2O[C@H]2C[C@](C)(N)[C@H](O)[C@H](C)O2)Oc2ccc(cc2Cl)[C@H]1O [vancomycin, reference compound]
effect on viability of MRSA cells (MRSA (strain IQ0064); equivalent dose, control, 660 nm and 405 nm (FIGS. 3Ca, 3Da)): negligible effect
